Assay results published in publication PMC11547513, “Design, Synthesis and Biological Activity Evaluation of β-Carboline Derivatives Containing Nitrogen Heterocycles” (Molecules, 2024).
Where two headings read alike, the source gives them in different places.

What was measured:
[1] = test system: A549 (human lung cancer cell); assay: MTT assay, in vitro cytotoxicity on A549; settings: A549, read-out: Inhibitory Activity/% at 10 μM, A549
Excerpt: (§1) Cells were purchased from the Cell Bank of the Chinese Academy of Sciences (Kunming, China).

[2] = test system: PC-3 (human prostate cancer cell); assay: MTT assay, in vitro cytotoxicity on PC-3; settings: 10 μM, average of three replicates, "/" means no anticancer activity; for inhibition at 10 µM: Homo sapiens
Excerpt: as §1

[3] = test system: K562 (human chronic myeloid leukemia cell); assay: MTT assay, in vitro cytotoxicity on K562; settings: Homo sapiens, K562, read-out: Inhibitory Activity/% at 10 μM, K562
Excerpt: as §1

[4] = test system: T47D (human breast cancer cell); assay: MTT assay, in vitro cytotoxicity on T47D; settings: read-out: Inhibitory Activity/% at 10 μM, T47D
Excerpt: as §1

[5] = test system: Hek-293T (human embryonic kidney cells); assay: MTT assay, in vitro cytotoxicity on normal Hek-293T; settings: read-out: Inhibitory Activity/% at 10 μM, Hek-293T
Excerpt: as §1

[6] = read-out: Inhibitory Activity/% at 10 μM, PC-3, Table 1 (7 series)
[7] = read-out: Inhibitory Activity/% at 10 μM, PC-3, Table 2 (8 series)

Row | Structure (SMILES) | melting point [°C] | inhibition at 10 µM [1] [%] | inhibition at 10 µM [2, 6] [%] | inhibition at 10 µM [3] [%] | inhibition at 10 µM [4] [%] | inhibition at 10 µM [5] [%] | inhibition at 10 µM [2, 7] [%] | Inhibitory Activity/% at 10 μM, PC-3 ([2]; Table 2 (8 series)) [%]
1 | O=c1[nH]cc(F)c(=O)[nH]1 [5-Fluorouracil, reference compound] | – | 40.6 ± 2.04 | – | – | – | – | – | –
2 | O=C(CSc1nnc(-c2cc3c(cn2)[nH]c2ccccc23)o1)N1CCN(c2ccc(F)cc2)CC1 [Compound 7d] | – | 11.2 ± 0.69 | 26.5 ± 5.76 | 17.8 ± 3.97 | 25.4 ± 4.82 | 36.9 ± 1.74 | – | –
3 | COc1ccc(N2CCN(C(=O)CSc3nnc(-c4cc5c(cn4)[nH]c4ccccc45)o3)CC2)cc1 [Compound 7f] | – | 13.5 ± 6.97 | 11.5 ± 2.78 | 21.5 ± 3.02 | 42.4 ± 4.23 | 56.8 ± 2.21 | – | –
4 | O=C(CSc1nnc(-c2cc3c(cn2)[nH]c2ccccc23)o1)N1CCN(c2ccc(F)cc2F)CC1 [Compound 7h] | – | 2.16 ± 3.56 | 10.7 ± 2.68 | 8.23 ± 4.12 | 46.4 ± 2.12 | 47.5 ± 0.78 | – | –
5 | COc1cccc(N2CCN(C(=O)CSc3nnc(-c4cc5c(cn4)[nH]c4ccccc45)o3)CC2)c1 [Compound 7j] | – | 34 ± 0.87 | 14.7 ± 4.49 | 13.6 ± 1.21 | 39.9 ± 3.5 | 13.4 ± 0.68 | – | –
6 | O=C(CSc1nnc(-c2cc3c(cn2)[nH]c2ccccc23)o1)N1CCN(C(c2ccc(F)cc2)c2ccc(F)cc2)CC1 [Compound 7o] | – | < 0 | 5.36 ± 3.63 | 1.26 ± 3.66 | 25 ± 1.43 | 35.3 ± 3.81 | – | –
7 | O=C(CSc1nnc(-c2cc3c(cn2)[nH]c2ccccc23)o1)Nc1ccc(CN2CCOCC2)cc1 [Compound 7q] | – | 8.67 ± 0.64 | 29.5 ± 1.38 | 17 ± 1.86 | 46.4 ± 2.86 | 32.3 ± 2.21 | – | –
8 | COc1cc(-c2nc(-c3nnc(SCC(=O)N4CCN(c5ccc(Cl)c(Cl)c5)CC4)o3)cc3c2[nH]c2ccccc23)cc(OC)c1OC [Compound 8a] | – | 7.02 ± 4.02 | – | 21 ± 1.65 | 7.49 ± 3.25 | 29.4 ± 2.16 | 7.73 ± 1.33 | –
9 | COc1cc(-c2nc(-c3nnc(SCC(=O)N4CCN(c5ccc(Cl)cc5)CC4)o3)cc3c2[nH]c2ccccc23)cc(OC)c1OC [Compound 8e] | – | 26.8 ± 2.6 | – | 54.4 ± 2.32 | < 0 | 23.4 ± 3.77 | 26.9 ± 4.39 | –
10 | COc1cc(-c2nc(-c3nnc(SCC(=O)N4CCN(c5ccccc5)CC4)o3)cc3c2[nH]c2ccccc23)cc(OC)c1OC [Compound 8i] | – | 18.4 ± 1.8 | – | 25.5 ± 2.72 | 0.56 ± 3.38 | 25.6 ± 3.44 | 21.3 ± 4.8 | –
11 | COc1cccc(N2CCN(C(=O)CSc3nnc(-c4cc5c([nH]c6ccccc65)c(-c5cc(OC)c(OC)c(OC)c5)n4)o3)CC2)c1 [Compound 8j] | – | 0.13 ± 4.62 | – | 25 ± 3.95 | < 0 | 20.4 ± 1.51 | 15.7 ± 3.93 | –
12 | COc1cc(-c2nc(-c3nnc(SCC(=O)N4CCN(S(C)(=O)=O)CC4)o3)cc3c2[nH]c2ccccc23)cc(OC)c1OC [Compound 8m] | – | 2.7 ± 1.78 | – | 30.2 ± 2.16 | < 0 | 21 ± 2.61 | 46.58 ± 0.35 | –
13 | COc1cc(-c2nc(-c3nnc(SCC(=O)N4CCN(C5CCCCC5)CC4)o3)cc3c2[nH]c2ccccc23)cc(OC)c1OC [Compound 8p] | – | 8.84 ± 0.36 | – | 44.6 ± 4.1 | 54.2 ± 4.87 | 28.9 ± 3.22 | 19.1 ± 2.79 | –

Continued, in another order:

Row | melting point [°C] | Structure (SMILES) | inhibition at 10 µM [1] [%] | inhibition at 10 µM [2, 6] [%] | inhibition at 10 µM [3] [%] | inhibition at 10 µM [4] [%] | inhibition at 10 µM [5] [%] | inhibition at 10 µM [2, 7] [%] | Inhibitory Activity/% at 10 μM, PC-3 ([2]; Table 2 (8 series)) [%]
14 | 168.3 to 170.9 | O=C(CSc1nnc(-c2cc3c(cn2)[nH]c2ccccc23)o1)N1CCN(c2ccc(Cl)c(Cl)c2)CC1 [Compound 7a] | 0.72 ± 1.63 | 29.58 ± 0.25 | 0.85 ± 1.01 | 32.3 ± 3.36 | 18.6 ± 0.71 | – | –
15 | 275.4 to 277.7 | O=C(CSc1nnc(-c2cc3c(cn2)[nH]c2ccccc23)o1)N1CCN(c2ccc(Br)cc2)CC1 [Compound 7b] | 13.6 ± 7.88 | 29.09 ± 0.27 | 8.98 ± 3.13 | 42.6 ± 1.65 | 33.3 ± 0.8 | – | –
16 | 163.9 to 165.8 | O=C(CSc1nnc(-c2cc3c(cn2)[nH]c2ccccc23)o1)N1CCN(c2ccc(O)cc2)CC1 [Compound 7c] | 16.8 ± 2.39 | 22.7 ± 2.19 | 18.1 ± 2.63 | 40.2 ± 0.9 | 47.3 ± 4.59 | – | –
17 | 246.4 to 248.3 | O=C(CSc1nnc(-c2cc3c(cn2)[nH]c2ccccc23)o1)N1CCN(c2ccc(Cl)cc2)CC1 [Compound 7e] | 18 ± 2.06 | 25 ± 4.06 | 12.7 ± 4.72 | 47.7 ± 3.36 | 26.4 ± 1.35 | – | –
18 | 212.6 to 213.3 | O=C(CSc1nnc(-c2cc3c(cn2)[nH]c2ccccc23)o1)N1CCN(c2ncccn2)CC1 [Compound 7g] | < 0 | 14.8 ± 2.23 | 0.05 ± 2.99 | 42.5 ± 3.19 | 34.1 ± 6.8 | – | –
19 | 148.9 to 150.6 | O=C(CSc1nnc(-c2cc3c(cn2)[nH]c2ccccc23)o1)N1CCN(c2ccccc2)CC1 [Compound 7i] | 5.2 ± 7.21 | 35.6 ± 1.89 | 23.6 ± 3.59 | 54.2 ± 3.88 | 84.14 ± 0.79 | – | –
20 | 296.4 to 297.9 | O=C(CSc1nnc(-c2cc3c(cn2)[nH]c2ccccc23)o1)Nc1ccc(F)cc1 [Compound 7k] | 10.1 ± 6.19 | 35.8 ± 4.09 | 12.2 ± 0.18 | 47.5 ± 1.39 | 30.8 ± 2.59 | – | –
21 | 228.3 to 229.6 | O=C(CSc1nnc(-c2cc3c(cn2)[nH]c2ccccc23)o1)N1CCOCC1 [Compound 7l] | 12.2 ± 6.14 | 39.6 ± 5.06 | 9.28 ± 2.51 | 19.3 ± 5.03 | 11.2 ± 7.91 | – | –
22 | 174.3 to 175.6 | CS(=O)(=O)N1CCN(C(=O)CSc2nnc(-c3cc4c(cn3)[nH]c3ccccc34)o2)CC1 [Compound 7m] | 14.7 ± 3.64 | 20 ± 3.22 | 33 ± 1.83 | 25.2 ± 4.1 | 29.5 ± 3.33 | – | –
23 | 232.4 to 232.8 | O=C(CSc1nnc(-c2cc3c(cn2)[nH]c2ccccc23)o1)N1CCOc2ccccc21 [Compound 7n] | 8.72 ± 2.57 | 36 ± 3.68 | 35.1 ± 3.12 | 47.8 ± 0.82 | 61.8 ± 1.57 | – | –
24 | 158.8 to 161.4 | O=C(CSc1nnc(-c2cc3c(cn2)[nH]c2ccccc23)o1)N1CCN(C2CCCCC2)CC1 [Compound 7p] | 17 ± 2.1 | 51.2 ± 3.11 | 8.68 ± 6.83 | 50.7 ± 5.79 | 61.5 ± 3.24 | – | –
25 | 300.7 to 302.9 | O=C(CSc1nnc(-c2cc3c(cn2)[nH]c2ccccc23)o1)N1CCN(c2ccc(C(F)(F)F)cn2)CC1 [Compound 7r] | 3.03 ± 5.83 | 44 ± 2.62 | 17.2 ± 2.35 | 38.4 ± 5.85 | 0.74 ± 3.77 | – | –
26 | 155.8 to 157.9 | COc1cc(-c2nc(-c3nnc(SCC(=O)N4CCN(c5ccc(Br)cc5)CC4)o3)cc3c2[nH]c2ccccc23)cc(OC)c1OC [Compound 8b] | 5.03 ± 5.42 | – | 10.8 ± 2.32 | 10.6 ± 1.16 | 38.4 ± 3.85 | 8.91 ± 5.34 | –
27 | 156.8 to 158.1 | COc1cc(-c2nc(-c3nnc(SCC(=O)N4CCN(c5ccc(F)cc5)CC4)o3)cc3c2[nH]c2ccccc23)cc(OC)c1OC [Compound 8d] | 10.1 ± 4.44 | – | 8.62 ± 5.59 | < 0 | 36.9 ± 2.63 | 17.9 ± 2.8 | –
28 | 156.5 to 158.6 | COc1ccc(N2CCN(C(=O)CSc3nnc(-c4cc5c([nH]c6ccccc65)c(-c5cc(OC)c(OC)c(OC)c5)n4)o3)CC2)cc1 [Compound 8f] | 13.2 ± 0.56 | – | 7.87 ± 5.82 | 6.91 ± 5.13 | 20.2 ± 4.34 | 34.5 ± 0.68 | –
29 | 178.1 to 179.4 | COc1cc(-c2nc(-c3nnc(SCC(=O)N4CCN(c5ccc(F)cc5F)CC4)o3)cc3c2[nH]c2ccccc23)cc(OC)c1OC [Compound 8h] | 17.9 ± 2.91 | – | 2.46 ± 1.78 | < 0 | 29.6 ± 3.04 | 12.2 ± 1.13 | –
30 | 235.8 to 237.4 | COc1cc(-c2nc(-c3nnc(SCC(=O)Nc4ccc(F)cc4)o3)cc3c2[nH]c2ccccc23)cc(OC)c1OC [Compound 8k] | 33.2 ± 0.45 | – | 33.5 ± 8.79 | 6.94 ± 3.38 | 29.6 ± 2.33 | > 40 | 44.72 ± 1.82
31 | 225.9 to 226.8 | COc1cc(-c2nc(-c3nnc(SCC(=O)N4CCOc5ccccc54)o3)cc3c2[nH]c2ccccc23)cc(OC)c1OC [Compound 8n] | 7.62 ± 3.84 | – | 38.2 ± 3.73 | 25.6 ± 3.79 | 35.5 ± 1.75 | 32 ± 1.17 | –
